system: SCC cells; test: CCK8 proliferation assay on SCC cells (cell line not specified); type: cell-based; details: SCC cell line not stated (HSC-3 or HSC-4), 48 h, read-out: IC50 against SCC cells
Description: (§1) Squamous cell carcinoma cell lines: HSC-3, HSC-4.
(§2) The above two tumor cell lines were cultured in a standardized incubator at 37° C. under 5% CO2; the cells in logarithmic growth phase were digested and counted, followed by seeding in a 96-well plate at 3000 cells/well, and then cultured overnight in an incubator. The stock solution of each compound was prepared using DMSO at a concentration of 10 mM, and diluted sequentially (0, 1.25, 2.5, 5, 10 μM) before treating the cells. The control group was added with the highest concentration of DMSO, and then cultivated continuously in an incubator for 48 h. The CCK8 cell proliferation kit was used to detect the effect of each compound on the proliferation of tumor cells. Moreover, the experimental results of representative compounds were analyzed, and their IC50 values were calculated to evaluate the effect of the compounds on the proliferation of tumor cells.

| SMILES | IC50 |
| --- | --- |
| CCc1cn(CCC(=O)Nc2ccc(C34CC5CC(CC(C5)C3)C4)cc2)c(=O)n(CCC(=O)Nc2ccc(C34CC5CC(CC(C5)C3)C4)cc2)c1=O [Compound 10a] | 6.18 µM |
| N#Cc1cn(CCC(=O)Nc2ccc(C34CC5CC(CC(C5)C3)C4)cc2)c(=O)n(CCC(=O)Nc2ccc(C34CC5CC(CC(C5)C3)C4)cc2)c1=O [Compound 12a] | 9.54 µM |
| COc1cn(CCC(=O)Nc2ccc(C34CC5CC(CC(C5)C3)C4)cc2)c(=O)n(CCC(=O)Nc2ccc(C34CC5CC(CC(C5)C3)C4)cc2)c1=O [Compound 14a] | 6.18 µM |
| O=C(CCn1cc(Cl)c(=O)n(CCC(=O)Nc2ccc(C34CC5CC(CC(C5)C3)C4)cc2)c1=O)Nc1ccc(C23CC4CC(CC(C4)C2)C3)cc1 [Compound 16a] | 9.66 µM |
| O=C(CCn1cc(Br)c(=O)n(CCC(=O)Nc2ccc(C34CC5CC(CC(C5)C3)C4)cc2)c1=O)Nc1ccc(C23CC4CC(CC(C4)C2)C3)cc1 [Compound 18a] | 4.85 µM |
| O=C(CCn1cc(I)c(=O)n(CCC(=O)Nc2ccc(C34CC5CC(CC(C5)C3)C4)cc2)c1=O)Nc1ccc(C23CC4CC(CC(C4)C2)C3)cc1 [Compound 20a] | 4.86 µM |
| Nc1ccn(CCC(=O)Nc2ccc(C34CC5CC(CC(C5)C3)C4)cc2)c(=O)n1 [Compound 24] | 1.48 µM |

system: HSC-3; test: CCK8 proliferation assay on squamous cell carcinoma cell line HSC-3; type: cell-based; details: Homo sapiens, first of two lines listed (HSC-3, HSC-4), 48 h, read-out: IC50 against SCC cells (first of two SCC cells)
Description: as §1, §2

| IC50 | SMILES |
| --- | --- |
| 4.85 µM | O=C(CCn1ccc(=O)n(CCC(=O)Nc2ccc(C34CC5CC(CC(C5)C3)C4)cc2)c1=O)Nc1ccc(C23CC4CC(CC(C4)C2)C3)cc1 [Compound 8a] |

system: HSC-4; test: CCK8 proliferation assay on squamous cell carcinoma cell line HSC-4; type: cell-based; details: Homo sapiens, second of two lines listed (HSC-3, HSC-4), 48 h, read-out: IC50 against SCC cells (second of two SCC cells)
Description: as §1, §2

| IC50 | SMILES |
| --- | --- |
| 9.87 µM | O=C(CCn1ccc(=O)n(CCC(=O)Nc2ccc(C34CC5CC(CC(C5)C3)C4)cc2)c1=O)Nc1ccc(C23CC4CC(CC(C4)C2)C3)cc1 [Compound 8a] |
